Results on 24 molecules are retold here after patent US11548870B2, “Compounds useful as inhibitors of helios protein” (Bristol-Myers Squibb Company, priority 2019, dated 2023).

For experiment [1], the target named is T1, Ikaros (Homo sapiens, UniProt Q13422).
T1 construct: fluorescently labelled antibodies against Helios and Ikaros; endogenous in cells; host or cells: Jurkat cells
As to the kind of experiment: Helios Cellular Degradation Assay, Ikaros readout (flow cytometry, Ikaros-Alexa488 antibody staining, 72 h). It counts as cell-based. Particulars: Jurkat cells, 72 h incubation, flow cytometry; for Dmax: Jurkat, read-out: Ikaros Dmax. Put shortly: (§1)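 Jurkat cells (80,000/well, RPMI+10% FBS) were exposed to compound for 72 h at 37 °C, then fixed, permeabilized and co-stained for 1 h with Ikaros-Alexa488 and Helios-PE antibodies. Intracellular protein levels were read by flow cytometry.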

The target of experiment [2] is T2, Helios (Homo sapiens, UniProt Q96SW2+Q9UKS7).
T2 construct: fluorescently labelled antibodies against Helios and Ikaros; endogenous in cells; host or cells: Jurkat cells
T2 sequence (Q9UKS7 whole entry): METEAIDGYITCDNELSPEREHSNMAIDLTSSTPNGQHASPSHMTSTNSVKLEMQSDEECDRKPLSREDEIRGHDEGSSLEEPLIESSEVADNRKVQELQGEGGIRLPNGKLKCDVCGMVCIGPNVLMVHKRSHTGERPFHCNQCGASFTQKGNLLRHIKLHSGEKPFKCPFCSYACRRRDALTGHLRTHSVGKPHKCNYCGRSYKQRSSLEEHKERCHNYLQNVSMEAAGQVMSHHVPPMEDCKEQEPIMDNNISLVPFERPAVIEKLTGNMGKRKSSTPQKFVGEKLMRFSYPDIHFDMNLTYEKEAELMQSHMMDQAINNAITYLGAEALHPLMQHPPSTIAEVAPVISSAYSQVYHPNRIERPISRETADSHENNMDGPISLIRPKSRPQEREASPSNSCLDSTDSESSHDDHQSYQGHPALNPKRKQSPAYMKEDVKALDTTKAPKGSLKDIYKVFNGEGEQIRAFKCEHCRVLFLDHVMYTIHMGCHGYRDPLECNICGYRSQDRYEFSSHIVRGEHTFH
T2 sequence (Q96SW2 whole entry): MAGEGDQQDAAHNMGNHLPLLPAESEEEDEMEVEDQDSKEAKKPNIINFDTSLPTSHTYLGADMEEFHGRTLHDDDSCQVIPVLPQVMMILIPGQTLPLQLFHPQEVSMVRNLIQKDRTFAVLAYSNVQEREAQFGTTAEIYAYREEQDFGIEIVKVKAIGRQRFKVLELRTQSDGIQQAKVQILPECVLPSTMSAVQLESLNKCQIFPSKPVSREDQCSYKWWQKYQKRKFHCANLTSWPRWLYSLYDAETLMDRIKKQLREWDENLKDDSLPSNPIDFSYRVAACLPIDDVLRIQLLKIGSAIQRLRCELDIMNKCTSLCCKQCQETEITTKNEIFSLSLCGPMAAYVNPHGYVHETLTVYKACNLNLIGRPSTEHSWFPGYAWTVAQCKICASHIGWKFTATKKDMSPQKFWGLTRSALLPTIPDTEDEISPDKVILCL
T2 sequence (Q16531 whole entry partner): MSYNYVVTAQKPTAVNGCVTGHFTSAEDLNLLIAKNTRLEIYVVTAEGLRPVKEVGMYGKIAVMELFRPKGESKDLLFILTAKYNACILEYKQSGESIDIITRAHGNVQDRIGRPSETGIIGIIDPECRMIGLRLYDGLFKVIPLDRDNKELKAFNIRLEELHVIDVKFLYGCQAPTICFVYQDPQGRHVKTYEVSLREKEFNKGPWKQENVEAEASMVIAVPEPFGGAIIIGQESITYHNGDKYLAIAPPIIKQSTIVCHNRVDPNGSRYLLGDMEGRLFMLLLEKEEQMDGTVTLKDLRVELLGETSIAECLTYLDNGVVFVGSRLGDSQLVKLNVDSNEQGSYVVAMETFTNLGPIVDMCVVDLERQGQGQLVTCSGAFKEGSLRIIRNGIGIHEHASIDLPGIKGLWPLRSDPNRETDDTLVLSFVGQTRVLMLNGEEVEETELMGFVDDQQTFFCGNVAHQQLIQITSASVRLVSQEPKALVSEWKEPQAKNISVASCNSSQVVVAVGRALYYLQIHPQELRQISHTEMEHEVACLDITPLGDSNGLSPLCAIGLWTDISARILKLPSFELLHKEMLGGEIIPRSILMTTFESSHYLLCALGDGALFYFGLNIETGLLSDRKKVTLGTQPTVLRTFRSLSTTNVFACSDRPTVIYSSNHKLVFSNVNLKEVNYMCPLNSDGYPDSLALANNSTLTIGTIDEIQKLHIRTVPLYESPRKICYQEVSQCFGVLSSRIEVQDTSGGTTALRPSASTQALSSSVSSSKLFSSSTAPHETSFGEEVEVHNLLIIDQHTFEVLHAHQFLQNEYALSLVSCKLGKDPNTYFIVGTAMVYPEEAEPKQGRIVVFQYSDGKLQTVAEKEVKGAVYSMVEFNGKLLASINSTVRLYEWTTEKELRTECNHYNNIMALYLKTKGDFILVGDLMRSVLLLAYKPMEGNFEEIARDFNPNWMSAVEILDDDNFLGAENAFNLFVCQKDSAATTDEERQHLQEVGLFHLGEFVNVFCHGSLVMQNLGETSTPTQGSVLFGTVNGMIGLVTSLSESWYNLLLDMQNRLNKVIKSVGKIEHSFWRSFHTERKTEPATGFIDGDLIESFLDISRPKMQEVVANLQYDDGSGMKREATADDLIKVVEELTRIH
Put plainly: Helios Cellular Degradation Assay (flow cytometry, Helios-PE antibody staining, 72 h). It counts as cell-based. As to conditions: Jurkat cells, 72 h incubation, flow cytometry; for Dmax: Jurkat, read-out: Helios Dmax. Put shortly: as §1
For orientation: In flow cytometry, cells or beads pass a laser one at a time.

T1 sequence (Q96SW2 whole entry partner): as the sequence (Q96SW2 whole entry) above
T1 sequence (Q16531 whole entry partner): as the sequence (Q16531 whole entry partner) above
T1 sequence (Q13422 whole entry): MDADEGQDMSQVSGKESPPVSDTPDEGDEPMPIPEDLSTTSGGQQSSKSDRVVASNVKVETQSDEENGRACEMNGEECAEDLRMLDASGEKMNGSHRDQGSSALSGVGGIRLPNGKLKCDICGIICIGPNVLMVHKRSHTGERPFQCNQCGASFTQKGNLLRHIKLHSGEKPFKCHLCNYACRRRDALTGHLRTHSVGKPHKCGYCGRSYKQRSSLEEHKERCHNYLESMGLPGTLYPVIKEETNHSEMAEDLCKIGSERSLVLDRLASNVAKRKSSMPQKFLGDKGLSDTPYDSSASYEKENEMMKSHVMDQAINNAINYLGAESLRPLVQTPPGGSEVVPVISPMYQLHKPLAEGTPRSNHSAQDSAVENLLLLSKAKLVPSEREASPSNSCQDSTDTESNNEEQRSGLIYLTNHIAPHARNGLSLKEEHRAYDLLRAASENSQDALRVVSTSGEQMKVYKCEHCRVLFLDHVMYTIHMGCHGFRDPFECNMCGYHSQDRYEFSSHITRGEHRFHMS

As to `C[C@@H]1CCCN1Cc1ccnc(-c2ccc3c(c2)CN(C2CCC(=O)NC2=O)C3=O)c1` (stereo partly drawn) [Example 125, 3-(5-(4-(((R)-2-methylpyrrolidin-1-yl)methyl)pyridin-2-yl)-1-oxoisoindolin-2-yl) piperidine-2,6-dione], the DC50 in experiment [1] was above 10000 nM; in experiment [2], 16 nM. In addition, the Dmax in experiment [1] is 8%; in experiment [2] it was 93%.
The like results for `O=C1CCC(N2Cc3cc(-c4cc(CNCCCCO)ccn4)ccc3C2=O)C(=O)N1` (centres unmarked) [Example 128, 3-(5-(4-(((4-hydroxybutyl)amino)methyl)pyridin-2-yl)-1-oxoisoindolin-2-yl)piperidine-2,6-dione] were, in that order, above 10000 nM, 93 nM, 28% and 94%.
The like results for `O=C1CCC(N2Cc3cc(-c4cc(CNC5CCC(O)CC5)ccn4)ccc3C2=O)C(=O)N1` (centres unmarked) [Example 101, 3-(5-(4-(((4-hydroxycyclohexyl)amino)methyl)pyridin-2-yl)-1-oxoisoindolin-2-yl)piperidine-2,6-dione] were, in that order, above 10000 nM, 59 nM, 22% and 89%.
The like results for `CN1CCC[C@H]1CC1CCCCN1Cc1ccnc(-c2ccc3c(c2)CN(C2CCC(=O)NC2=O)C3=O)c1` (stereo partly drawn) [Example 30, 3-(5-(4-((2-(((S)-1-methylpyrrolidin-2-yl)methyl)piperidin-1-yl)methyl)pyridin-2-yl)-1-oxoisoindolin-2-yl)piperidine-2,6-dione] were, in that order, above 10000 nM, above 10000 nM, -1% and 46%.
On to `O=C1CCC(N2Cc3cc(-c4cc(CN5CC(c6cccnc6)C5)c(F)cn4)ccc3C2=O)C(=O)N1` (centres unmarked) [Example 190, 3-(5-(5-fluoro-4-((3-(pyridin-3-yl)azetidin-1-yl)methyl)pyridin-2-yl)-1-oxoisoindolin-2-yl) piperidine-2,6-dione], for which, in experiment [1], the DC50 is above 10000 nM and the Dmax was 16%. In experiment [2], the DC50 was found to be 76 nM and the Dmax was determined as 71%.
The like results for `O=C1CCC(N2Cc3cc(-c4cc(CN5CCN(C(=O)c6ccco6)CC5)ccn4)ccc3C2=O)C(=O)N1` (centres unmarked) [Example 24, 3-(5-(4-((4-(furan-2-carbonyl)piperazin-1-yl)methyl)pyridin-2-yl)-1-oxoisoindolin-2-yl)piperidine-2,6-dione] were, in that order, above 10000 nM, 11%, above 10000 nM and 3%.
On to `O=C1CCC(N2Cc3cc(-c4cc(CNCCOc5ccccc5)ccn4)ccc3C2=O)C(=O)N1` (centres unmarked) [Example 103, 3-(1-oxo-5-(4-(((2-phenoxyethyl)amino)methyl)pyridin-2-yl)isoindolin-2-yl)piperidine-2,6-dione], for which, in experiment [1], the DC50 is above 10000 nM and the Dmax was 1%. In experiment [2], the DC50 was determined as 36 nM and the Dmax was 95%.
Consider “3-(1-oxo-5-(4-((4-(pyrimidin-2-yl) piperidin-1-yl)methyl)pyridin-2-yl)isoindolin-2-yl)piperidine-2,6-dione [Example 18]”, for which, in experiment [1], the DC50 was above 10000 nM and the “Ikaros Dmax” value is recorded as 19%. Also, in experiment [2], the DC50 was above 10000 nM and the “Helios Dmax” value came out at 21%.
For the molecule “3-(5-(4-(((cyclobutylmethyl)(methyl)amino)methyl)pyridin-2-yl)-1-oxoisoindolin-2-yl)piperidine-2,6-dione [Example 178]”, in experiment [1], the DC50 was above 10000 nM and the “Ikaros Dmax” value was 15%. Also, in experiment [2], the DC50 turned out to be 131 nM and the “Helios Dmax” value is reported as 82%.
On to `O=C1CCC(N2Cc3cc(-c4cc(CN[C@@H]5CCC[C@@H]5c5ccccc5)ccn4)ccc3C2=O)C(=O)N1` (stereo partly drawn) [Example 84, 3-(1-oxo-5-(4-((((1R,2R)-2-phenylcyclopentyl)amino)methyl)pyridin-2-yl)isoindolin-2-yl)piperidine-2,6-dione], for which the DC50 in experiment [1] is above 10000 nM; in experiment [2] it was 40 nM. Also, the results for the Dmax in experiment [1] and in experiment [2] were 4% and 69%, respectively.
Regarding `O=C1CCC(N2Cc3cc(-c4cc(CN[C@@H]5C[C@H]5c5ccccc5)ccn4)ccc3C2=O)C(=O)N1` (stereo partly drawn) [Example 111, 3-(1-oxo-5-(4-((((1R,2S)-2-phenylcyclopropyl)amino)methyl)pyridin-2-yl)isoindolin-2-yl)piperidine-2,6-dione], in experiment [1], the DC50 is above 10000 nM and the Dmax worked out at 10%. Besides, in experiment [2], it took 137 nM to reach half-maximal degradation (DC50) and the Dmax stood at 75%.
The like results for `O=C1CCC(N2Cc3cc(-c4cc(CN5CCC(C(c6ccccc6)c6ccccc6)CC5)ccn4)ccc3C2=O)C(=O)N1` (centres unmarked) [Example 42, 3-(5-(4-((4-benzhydrylpiperidin-1-yl)methyl)pyridin-2-yl)-1-oxoisoindolin-2-yl)piperidine-2,6-dione] were, in that order, above 10000 nM, 7%, above 10000 nM and 3%.
The like results for `O=C1CCC(N2Cc3cc(-c4cc(CN5CCC(Cc6ccccc6)CC5)ccn4)ccc3C2=O)C(=O)N1` (centres unmarked) [Example 38, 3-(5-(4-((4-benzylpiperidin-1-yl)methyl)pyridin-2-yl)-1-oxoisoindolin-2-yl)piperidine-2,6-dione] were, in that order, above 10000 nM, 6%, 87 nM and 68%.
In the case of `CC1CC(NCc2ccnc(-c3ccc4c(c3)CN(C3CCC(=O)NC3=O)C4=O)c2)CCO1` (centres unmarked) [Example 80, 3-(5-(4-(((2-methyltetrahydro-2H-pyran-4-yl)amino)methyl)pyridin-2-yl)-1-oxoisoindolin-2-yl)piperidine-2,6-dione], in experiment [1], the DC50 was above 10000 nM and the “Ikaros Dmax” value was determined as 12%. Also, in experiment [2], it took 35 nM to reach half-maximal degradation (DC50) and the “Helios Dmax” value is 99%.
Take `O=C1CCC(N2Cc3cc(-c4cc(CNC5CC5)ccn4)ccc3C2=O)C(=O)N1` (centres unmarked) [Example 109, 3-(5-(4-((cyclopropylamino)methyl)pyridin-2-yl)-1-oxoisoindolin-2-yl)piperidine-2,6-dione]: in experiment [1], the DC50 was above 10000 nM and the Dmax amounted to 15%. In addition, in experiment [2], the DC50 came out at 48 nM and the Dmax turned out to be 75%.
For `O=C1CCC(N2Cc3cc(-c4cc(CNCCO)ccn4)ccc3C2=O)C(=O)N1` (centres unmarked) [Example 92, 3-(5-(4-(((2-hydroxyethyl)amino)methyl)pyridin-2-yl)-1-oxoisoindolin-2-yl) piperidine-2,6-dione] the same measures were above 10000 nM, 11%, 209 nM and 92%.
For `NC(=O)C1CCN1Cc1ccnc(-c2ccc3c(c2)CN(C2CCC(=O)NC2=O)C3=O)c1` (centres unmarked) [Example 206, 1-((2-(2-(2,6-dioxopiperidin-3-yl)-1-oxoisoindolin-5-yl)pyridin-4-yl)methyl)azetidine-2-carboxamide] the same measures were above 10000 nM, 9%, 740 nM and 66%.
For `CC1(C)CCCN1Cc1ccnc(-c2ccc3c(c2)CN(C2CCC(=O)NC2=O)C3=O)c1` (centres unmarked) [Example 117, 3-(5-(4-((2,2-dimethylpyrrolidin-1-yl)methyl)pyridin-2-yl)-1-oxoisoindolin-2-yl)piperidine-2,6-dione] the same measures were above 10000 nM, 3%, 53 nM and 77%.
For `COC1(C)CN(Cc2ccnc(-c3ccc4c(c3)CN(C3CCC(=O)NC3=O)C4=O)c2)C1` (centres unmarked) [Example 196, 3-(5-(4-((3-methoxy-3-methylazetidin-1-yl)methyl)pyridin-2-yl)-1-oxoisoindolin-2-yl)piperidine-2,6-dione], in experiment [1], the DC50 was above 10000 nM and the Dmax is 7%. Besides, in experiment [2], the DC50 amounted to 45 nM and the Dmax worked out at 78%.
For `O=C1CCC(N2Cc3cc(-c4cc(CN5CCC6(CC5)CC6)ccn4)ccc3C2=O)C(=O)N1` (centres unmarked) [Example 127, 3-(5-(4-((6-azaspiro[2.5]octan-6-yl)methyl)pyridin-2-yl)-1-oxoisoindolin-2-yl)piperidine-2,6-dione] the same measures were above 10000 nM, 6%, 35 nM and 84%.
In the case of `O=C1CCC(N2Cc3cc(-c4cc(CN5CC(c6ccccc6)C5)c(F)cn4)ccc3C2=O)C(=O)N1` (centres unmarked) [Example 188, 3-(5-(5-fluoro-4-((3-phenylazetidin-1-yl)methyl)pyridin-2-yl)-1-oxoisoindolin-2-yl) piperidine-2,6-dione], the Dmax in experiment [1] was determined as 16%. Besides, in experiment [2], it took 27 nM to reach half-maximal degradation (DC50) and the Dmax turned out to be 76%.
Regarding `O=C1CCC(N2Cc3cc(-c4cc(CNCCc5ccc(O)cc5)ccn4)ccc3C2=O)C(=O)N1` (centres unmarked) [Example 96, 3-(5-(4-(((4-hydroxyphenethyl)amino)methyl)pyridin-2-yl)-1-oxoisoindolin-2-yl) piperidine-2,6-dione], in experiment [1], the DC50 is above 10000 nM and the Dmax was determined as 25%. Moreover, in experiment [2], the half-maximal degradation concentration (DC50) stood at 19 nM and the Dmax was determined as 94%.
The like results for `O=C1CCC(N2Cc3cc(-c4cc(CN5CCC5c5ccccc5)c(Cl)cn4)ccc3C2=O)C(=O)N1` (centres unmarked) [Example 187, 3-(5-(5-chloro-4-((2-phenylazetidin-1-yl)methyl)pyridin-2-yl)-1-oxoisoindolin-2-yl)piperidine-2,6-dione] were, in that order, above 10000 nM, 6%, 24 nM and 84%.
The like results for `CCCCN(C)Cc1ccnc(-c2ccc3c(c2)CN(C2CCC(=O)NC2=O)C3=O)c1` (centres unmarked) [Example 9, 3-(5-(4-((butyl(methyl)amino)methyl)pyridin-2-yl)-1-oxoisoindolin-2-yl)piperidine-2,6-dione] were, in that order, above 10000 nM, 4%, 167 nM and 87%.

By DC50 is commonly meant the concentration at which degradation of the target reaches its halfway point. A low value points to degradation at low concentration. In general, Dmax refers to the greatest extent of degradation seen.
